# Source: patent US20060069132A1, “Azolecarboxamide herbicides” (priority 2004, published 2006)
# Experiments:
# barnyardgrass [1] = assay: Test A pre-/postemergence herbicide test; type: in vivo, Echinochloa crus-galli
# Outline: (§1)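 Seeds sown in sandy loam received a preemergence directed soil spray of compound in non-phytotoxic solvent with surfactant; postemergence plants (2–10 cm, one- to two-leaf stage) were sprayed to runoff at the same time. After ~10 days in greenhouse, injury was rated visually versus untreated controls (0 = no effect, 100 = complete control).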
# large crabgrass [2] = assay: Test A pre-/postemergence herbicide test; type: in vivo, Digitaria sanguinalis
# Outline: as §1
# giant foxtail [3] = assay: Test A pre-/postemergence herbicide test; type: in vivo, Setaria faberi
# Outline: as §1
# morningglory [4] = assay: Test A pre-/postemergence herbicide test; type: in vivo, Ipomoea spp.
# Outline: as §1
# redroot pigweed = assay: Test A pre-/postemergence herbicide test; type: in vivo, Amaranthus retroflexus
# Outline: as §1
# velvetleaf [5] = assay: Test A pre-/postemergence herbicide test; type: in vivo, Abutilon theophrasti
# Outline: as §1
# barnyardgrass [6] = assay: Test B pre-/postemergence herbicide test; type: in vivo, Echinochloa crus-galli
# Outline: (§2)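 Seeds were planted and treated preemergence with compounds formulated in a non-phytotoxic solvent mixture containing surfactant, while plants at the 1- to 4-leaf stage (2 to 18 cm) received postemergence sprays. Flooded paddy plants were grown to the 2-leaf stage. After 13 to 15 days in a greenhouse, injury was visually rated 0–100 against untreated controls.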
# Surinam grass = assay: Test B pre-/postemergence herbicide test; type: in vivo, Urochloa decumbens
# Outline: (§3)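 Visual rating, 0 (no effect) to 100 (complete control), versus untreated controls after 13–15 d in greenhouse. Pre- and postemergence applications (postemergence plants 2–18 cm, 1–4 leaves); flooded paddy arm at 2-leaf stage. Compounds in non-phytotoxic solvent plus surfactant.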
# cocklebur = assay: Test B pre-/postemergence herbicide test; type: in vivo, Xanthium strumarium
# Outline: as §2
# corn = assay: Test B pre-/postemergence herbicide test; type: in vivo, Zea mays
# Outline: as §3
# large crabgrass [7] = assay: Test B pre-/postemergence herbicide test; type: in vivo, Digitaria sanguinalis
# Outline: as §3
# giant foxtail [8] = assay: Test B pre-/postemergence herbicide test; type: in vivo, Setaria faberi
# Outline: as §3
# lambsquarters = assay: Test B pre-/postemergence herbicide test; type: in vivo, Chenopodium album
# Outline: as §3
# morningglory [9] = assay: Test B pre-/postemergence herbicide test; type: in vivo, Ipomoea coccinea
# Outline: as §2
# pigweed = assay: Test B pre-/postemergence herbicide test; type: in vivo, Amaranthus retroflexus
# Outline: as §3
# rice [10] = assay: Test B pre-/postemergence herbicide test; type: in vivo, Oryza sativa; details: preemergence
# Outline: as §3
# velvetleaf [11] = assay: Test B pre-/postemergence herbicide test; type: in vivo, Abutilon theophrasti
# Outline: as §3
# blackgrass = assay: Test B postemergence herbicide test; type: in vivo, Alopecurus myosuroides; details: scale 0 (no effect) to 100 (complete control)
# Outline: (§4)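 Postemergence plants were sprayed with formulated test chemicals at 2 to 18 cm height (1- to 4-leaf stage); paddy species were grown to the 2-leaf stage. After 13 to 15 days in a greenhouse, injury was rated visually against untreated controls on a 0–100 scale (0 = no effect, 100 = complete control).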
# wheat = assay: Test B postemergence herbicide test; type: in vivo, Triticum aestivum; parameters: key to Wheat plant response rating: 0 = no effect, 100 = complete control; details: scale 0 (no effect) to 100 (complete control)
# Outline: (§5)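 Read-out: visual comparison with controls, scored 0 to 100, where 100 means complete control and 0 no effect. Formulated chemicals were applied postemergence to plants 2–18 cm tall (1- to 4-leaf), or to flooded-paddy plants at the 2-leaf stage, then held 13 to 15 days under glass.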
# wild oat = assay: Test B postemergence herbicide test; type: in vivo, Avena fatua; details: scale 0 (no effect) to 100 (complete control)
# Outline: as §5
# rice [12] = assay: Test B flooded paddy test; type: in vivo, Oryza sativa; details: 1000 g ai/ha, visual rating, scale 0 to 100 (0 no effect, 100 complete control), 13 to 15 days
# Outline: as §5
# [13] = test system: small flower umbrella sedge; assay: Test B flooded paddy test; type: in vivo, Cyperus difformis; details: 1000 g ai/ha, visual rating, scale 0 to 100 (0 no effect, 100 complete control), 13 to 15 days
# Outline: as §4
# ducksalad = assay: Test B flooded paddy test; type: in vivo, Heteranthera limosa; details: 1000 g ai/ha, visual rating, scale 0 to 100 (0 no effect, 100 complete control), 13 to 15 days
# Outline: as §4
# barnyardgrass [14] = assay: Test B flooded paddy test; type: in vivo, Echinochloa crus-galli; details: 1000 g ai/ha, visual rating, scale 0 to 100 (0 no effect, 100 complete control), 13 to 15 days
# Outline: as §4
# [15] = Postemergence, 500 g ai/ha, 0 to 100 scale, 0 no effect, 100 complete control
# [16] = Postemergence, 2000 g ai/ha, 0 to 100 scale, 0 no effect, 100 complete control
# [17] = Preemergence, 500 g ai/ha, visual rating, 0 to 100 scale (0 no effect, 100 complete control)
# [18] = Preemergence, 2000 g ai/ha, 0 to 100 scale, 0 no effect, 100 complete control
# [19] = 500 g ai/ha, visual rating 0-100, 0 no effect, 100 complete control, preemergence
# [20] = Postemergence, 500 g ai/ha, visual rating after 13 to 15 days, scale 0 (no effect) to 100 (complete control)
# [21] = postemergence, 125 g ai/ha, visual rating, scale 0 (no effect) to 100 (complete control)
# [22] = preemergence, 125 g ai/ha, 0 to 100 scale, 0 is no effect, 100 is complete control
# [23] = Postemergence, 500 g ai/ha, visual rating after 13 to 15 days
# [24] = postemergence, 125 g ai/ha, visual rating
smiles,measurement,setting,value
CCn1nc(C(C)(C)C)cc1C(=O)Nc1cccc(C(=O)OC(C)C)c1C [Compound 92],Barnyardgrass plant response rating,barnyardgrass [1]; [15],0
same,"Plant response rating, Barnyardgrass",barnyardgrass [1]; [16],0
same,Barnyardgrass plant response rating,barnyardgrass [1]; [17],0
same,Barnyardgrass plant response rating,barnyardgrass [1]; [18],0
same,"Crabgrass, Large plant response rating",large crabgrass [2]; [15],0
same,"Plant response rating, Crabgrass, Large",large crabgrass [2]; [16],10
same,"Crabgrass, Large plant response rating",large crabgrass [2]; [17],0
same,"Crabgrass, Large plant response rating",large crabgrass [2]; [18],0
same,"Foxtail, Giant plant response rating",giant foxtail [3]; [15],0
same,"Plant response rating, Foxtail, Giant",giant foxtail [3]; [16],0
same,"Foxtail, Giant plant response rating",giant foxtail [3]; [17],0
same,"Foxtail, Giant plant response rating",giant foxtail [3]; [18],0
same,Morningglory plant response rating,morningglory [4]; [15],0
same,"Plant response rating, Morningglory",morningglory [4]; [16],0
same,Morningglory plant response rating,morningglory [4]; [17],0
same,Morningglory plant response rating,morningglory [4]; [18],0
same,Pigweed plant response rating,redroot pigweed; [15],0
same,"Plant response rating, Pigweed",redroot pigweed; [16],0
same,Pigweed plant response rating,redroot pigweed; [17],0
same,Pigweed plant response rating,redroot pigweed; [18],35
same,Velvetleaf plant response rating,velvetleaf [5]; [15],0
same,"Plant response rating, Velvetleaf",velvetleaf [5]; [16],0
same,Velvetleaf plant response rating,velvetleaf [5]; [17],0
same,Velvetleaf plant response rating,"velvetleaf [5]; Preemergence, 2000 g ai/ha, visual rating, 0 to 100 scale (0 no effect, 100 complete control)",0
same,"Plant response rating, Barnyardgrass",barnyardgrass [6]; [19],0
same,"Plant response rating, Barnyardgrass",barnyardgrass [6]; [20],0
same,Barnyardgrass plant response rating,barnyardgrass [6]; [21],0
same,"Plant response rating, Barnyardgrass",barnyardgrass [6]; [22],0
same,"Plant response rating, Surinam Grass",Surinam grass; [19],0
same,"Plant response rating, Surinam Grass",Surinam grass; [20],10
same,Surinam Grass plant response rating,Surinam grass; [21],0
same,"Plant response rating, Surinam Grass",Surinam grass; [22],0
same,"Plant response rating, Cocklebur",cocklebur; [19],0
same,"Plant response rating, Cocklebur",cocklebur; [20],0
same,Cocklebur plant response rating,cocklebur; [21],0
same,"Plant response rating, Cocklebur",cocklebur; [22],0
same,"Plant response rating, Corn",corn; [19],0
same,"Plant response rating, Corn",corn; [20],10
same,Corn plant response rating,corn; [21],10
same,"Plant response rating, Corn",corn; [22],0
same,"Plant response rating, Crabgrass, Large",large crabgrass [7]; [19],10
same,"Plant response rating, Crabgrass, Large",large crabgrass [7]; [20],10
same,"Crabgrass, Large plant response rating",large crabgrass [7]; [21],0
same,"Plant response rating, Crabgrass, Large",large crabgrass [7]; [22],0
same,"Plant response rating, Foxtail, Giant",giant foxtail [8]; [19],10
same,"Plant response rating, Foxtail, Giant",giant foxtail [8]; [20],0
same,"Foxtail, Giant plant response rating",giant foxtail [8]; [21],0
same,"Plant response rating, Foxtail, Giant",giant foxtail [8]; [22],0
same,"Plant response rating, Lambsquarters",lambsquarters; [19],0
same,"Plant response rating, Lambsquarters",lambsquarters; [20],20
same,Lambsquarters plant response rating,lambsquarters; [21],20
same,"Plant response rating, Lambsquarters",lambsquarters; [22],0
same,"Plant response rating, Morningglory",morningglory [9]; [19],0
same,"Plant response rating, Morningglory",morningglory [9]; [20],0
same,Morningglory plant response rating,morningglory [9]; [21],0
same,"Plant response rating, Morningglory",morningglory [9]; [22],0
same,"Plant response rating, Pigweed",pigweed; [19],0
same,"Plant response rating, Pigweed",pigweed; [20],10
same,Pigweed plant response rating,pigweed; [21],0
same,"Plant response rating, Pigweed",pigweed; [22],0
same,"Plant response rating, Rice","rice [10]; 500 g ai/ha, visual rating 0-100, 0 no effect, 100 complete control",0
same,"Plant response rating, Rice","rice [10]; 125 g ai/ha, 0 to 100 scale, 0 is no effect, 100 is complete control",0
same,"Plant response rating, Velvetleaf",velvetleaf [11]; [19],0
same,"Plant response rating, Velvetleaf",velvetleaf [11]; [20],0
same,Velvetleaf plant response rating,velvetleaf [11]; [21],0
same,"Plant response rating, Velvetleaf",velvetleaf [11]; [22],0
same,"Plant response rating, Blackgrass",blackgrass; [23],0
same,Blackgrass plant response rating,blackgrass; [24],0
same,"Plant response rating, Wheat",wheat; [23],0
same,Wheat plant response rating,wheat; [24],0
same,"Plant response rating, Oat, Wild",wild oat; [23],0
same,"Oat, Wild plant response rating",wild oat; [24],0
same,Rice plant response rating,rice [12],0
same,"Sedge, Umbrella plant response rating",[13],0
same,Ducksalad plant response rating,ducksalad,0
same,Barnyardgrass plant response rating,barnyardgrass [14],0
